From paper PMC5626781, “A Potent Tartrate Resistant Acid Phosphatase Inhibitor to Study the Function of TRAP in Alveolar Macrophages” (Scientific Reports, 2017)
pIC50: −log10 of the molar value.

System: RAW264.7 macrophages
Experiment: MTT assay
Type: cell-based, mouse
Protocol: The effect of AubipyOMe and NaAuCl4 on RAW264.7 cell growth was assessed with a classical MTT assay. The IC50 values were calculated using nonlinear curve fitting with a variable slope in Graphpad Prism 6 (Graphpad Software) An average IC50 of four independent experiments was calculated.
AubipyOMe was tested in the range 0-40 μM with MPI cell lysates or pooled lung tissue lysates from COPD patients using a TRAP activity assay. MPI lysates were diluted 1:1 and COPD tissue lysates 1:20 with acetate buffer and incubated with increasing concentrations inhibitor, that were prepared from freshly made stock solutions (10 mM in DMSO) and diluted with acetate buffer. Lysates were incubated at 37° C for 30 min in the presence of PNPP solution (1:1 ratio). 1M NaOH was added to stop the reaction and absorption was measured at 410 nm with 490 nm as a reference value.
The inhibitory effects of gold compounds were calculated as the ratio of absorbance between the treated and untreated wells. The IC50 values were calculated using nonlinear curve fitting with a variable slope in Graphpad Prism 6 (Graphpad Software, la Jolla, USA). An average IC50 of three independent experiments was calculated.
The effect of AubipyOMe and NaAuCl4 on cell growth was assessed with a classical MTT assay.
RAW264.7 macrophages were seeded in 96-well plates at a concentration of 10,000 cells/well and grown for 24h in complete medium. Compound dilutions were prepared in complete medium from a freshly prepared stock solution (10 mM in DMSO) and added to the wells (200 μl) to obtain a final concentration (0 to 100 μM). […] The optical density of each well was quantified in quadruplicate at 540 nm, using a multi-well plate reader, and the percentage of surviving cells was calculated from the ratio of absorbance between treated and untreated cells. The IC50 values were calculated using nonlinear curve fitting with a variable slope in Graphpad Prism 6 (Graphpad Software) An average

SMILES: COc1ccnc(-c2cc(OC)ccn2)c1.F[P-](F)(F)(F)(F)F.[Cl][Au+][Cl] [AubipyOMe, [Au(4,4′-dimethoxy-2,2′-bipyridine)Cl2][PF6]]
- pIC50 (RAW264.7 macrophages, 72 h, n = 4, read-out: IC50 cytotoxicity): ~4.46
- cytotoxic effects on RAW264.7 macrophages (at concentrations around the TRAP IC50 values): no cytotoxic effects
